Paper PMC5574609, “Potential role of an antimicrobial peptide, KLK in inhibiting lipopolysaccharide-induced macrophage inflammation” (PLoS ONE, 2017)
One block for each molecule: values may come before it. Bridge positions count the residues as written; N and C are the ends. Ends that are not written are not given here. Peptide text beside a SMILES is read from it.

Key:
Type in all cases: cell-based, murine
[1] = tested on: NO production in LPS-stimulated RAW 264.7 cells; experiment: Pre-treatment with or without wash, then LPS; NO by Griess; details: 10 µg/mL pre-treatment 1 h, washed, LPS 1 µg/mL 48 h
Experimental: RAW 264.7 cells at 1×10^5 cells/well were stimulated with 1 μg/mL LPS (Escherichia coli 0111:B4; Sigma, St. Louis, MO, USA) in the presence or absence of various concentrations of the test peptide and then incubated at 37°C in 5% CO2 for 48 h. Indomethacin (10 μM; Sigma, St. Louis, MO, USA) was included as a positive control. Where appropriate, cells were pre-incubated with the test peptide for 1 h, and washed three times with sterile PBS before incubation with LPS (1 μg/mL; Sigma). Culture supernatant was collected and the nitrite (a stable breakdown product of NO) accumulated in culture supernatant was then determined by the Griess reagent system (Promega, Madison, USA). […] The absorbance was measured at 540 nm using a microplate reader (Rayto RT-2100C, China) and nitrite concentrations were determined using a sodium nitrite standard curve. The PGE2 levels in culture medium were quantified by enzyme-immunoassay (R&D Systems, Minneapolis, MN, USA) according to the manufacturer’s instructions.
To investigate whether the ability of KLK peptide to inhibit LPS-induced signaling was due to KLK-LPS binding, experiments were performed in which RAW 264.7 cells were pre-treated with the KLK peptide for 1 h and then thoroughly washed to remove exogenous peptide. The cells were subsequently stimulated with LPS and pro-inflammatory mediator (NO) measured in cell-free supernatant after 48 hr. […]

[2] = tested on: TNF-α production in LPS-stimulated RAW 264.7 cells; experiment: TNF-α production, sandwich ELISA; details: LPS 1 µg/mL, 72 h, mean ± SD
Experimental: (§1) The pro-inflammatory cytokines (IL-1β and TNF-α)were determined by sandwich enzyme-linked immunosorbent assay (ELISA). RAW 264.7 cells (1×10^5 cells/well) were seeded into a 96-well microtiter plate (Nunc™) and stimulated with LPS (1 μg/mL; Sigma) in the presence or absence of each peptide at different concentrations. After 72 h of incubation, the culture supernatant was collected and cytokine concentrations measured using ELISA MAX™ Deluxe Set (BioLegend, San Diego, CA, USA), following the manufacturer’s protocol.

[3] = tested on: NO production in LPS-stimulated RAW 264.7 cells; experiment: LPS-stimulated NO production (nitrite, Griess); details: peptide 1 µg/mL, LPS 1 µg/mL, 48 h, mean ± SD
Experimental: (§2) RAW 264.7 cells at 1×10^5 cells/well were stimulated with 1 μg/mL LPS (Escherichia coli 0111:B4; Sigma, St. Louis, MO, USA) in the presence or absence of various concentrations of the test peptide and then incubated at 37°C in 5% CO2 for 48 h. Indomethacin (10 μM; Sigma, St. Louis, MO, USA) was included as a positive control. Where appropriate, cells were pre-incubated with the test peptide for 1 h, and washed three times with sterile PBS before incubation with LPS (1 μg/mL; Sigma). Culture supernatant was collected and the nitrite (a stable breakdown product of NO) accumulated in culture supernatant was then determined by the Griess reagent system (Promega, Madison, USA). Briefly, 50 μL of culture supernatant was mixed with an equal volume of 1% sulfanilamide in 5% phosphoric acid. After incubation for 10 min at room temperature, 50 μL of 0.1% N-1-napthylethylenediamine dihydrochloride was added and incubated for another 10 min at room temperature. The absorbance was measured at 540 nm using a microplate reader (Rayto RT-2100C, China) and nitrite concentrations were determined using a sodium nitrite standard curve. The PGE2 levels in culture medium were quantified by enzyme-immunoassay (R&D Systems, Minneapolis, MN, USA) according to the manufacturer’s instructions.

[4] = tested on: IL-1β production in LPS-stimulated RAW 264.7 cells; experiment: IL-1β production, sandwich ELISA; details: LPS 1 µg/mL, 72 h, mean ± SD
Experimental: as §1

[5] = tested on: PGE2 production in LPS-stimulated RAW 264.7 cells; experiment: PGE2 production, enzyme-immunoassay; details: LPS 1 µg/mL + indomethacin 10 µM, 48 h
Experimental: as §2, with “Sigma,” for “RAW 264.7 cells at 1×10^5 cells/well were stimulated with 1 μg/mL LPS (Escherichia coli 0111:B4; Sigma,”, “Where appropriate, cells were pre-incubated with the test peptide for 1 h, and washed three times with sterile PBS before incubation with LPS (1 μg/mL;” left out, “After incubation for 10 min at room temperature, 50 μL of 0.1% N-1-napthylethylenediamine dihydrochloride was added and incubated for another 10 min at room temperature.” left out

Molecule: polymyxin B [PMB]
effect of removing exogenous compound by washing before LPS on NO inhibition [1]: significantly affected

IC50 for TNF-α production [2]: 0.91 ± 0.07 µg/mL
IC50 for IL-1β production [4]: 8.83 ± 1.31 µg/mL
Molecule: CC(C)C[C@@H]1NC(=O)[C@H](CCCCN)NC(=O)[C@H](CC(C)C)NC(=O)[C@H](CC(C)C)NC(=O)[C@H](CC(C)C)NC(=O)[C@H](CC(C)C)NC(=O)[C@H](CC(C)C)NC(=O)[C@H](CCCCN)NC(=O)[C@H](CC(C)C)NC(=O)[C@H](CCCCN)NC(=O)[C@H](CCCCN)NC1=O [CYCKLK] (HELM PEPTIDE1{K.L.K.L.L.L.L.L.K.L.K}$PEPTIDE1,PEPTIDE1,1:R1-11:R2$$$V2.0)
inhibitory rate of LPS-stimulated NO production [3]: 79.26 ± 3.17%

Molecule: COc1ccc2c(c1)c(CC(=O)O)c(C)n2C(=O)c1ccc(Cl)cc1 [Indomethacin]
PGE2 ([5]; exp. 1): 783.5 pg/mL
PGE2 ([5]; exp. 2): 716 pg/mL
PGE2 ([5]; mean of n = 2): 749.7 pg/mL

IC50 for TNF-α production [2]: 1.79 ± 0.01 µg/mL
Molecule: CKLKLLLLLKLKC (disulfide 1-13 (inferred)) [SSKLK, KLK with cysteine residues added to both N and C-terminal ends]
inhibitory rate of LPS-stimulated NO production [3]: 70.77 ± 1.55%
